Data published in patent publication US6492530B1, “Amorphous form of cell cycle inhibitor having improved solubility and bioavailability” (Hoffmann-La Roche Inc., priority 2000, dated 2002).
Entries after “also recorded” stand apart in the source; their conditions may differ.

Key:
[1] = Stability of the amorphous form under accelerated storage (powder X-ray diffraction); format: physicochemical; settings: 40° C./75% RH, closed glass vial for 6 months, independent of form stabilizers; FIG. 5
[2] = Two-stage dissolution method (water, then 6% SLS in phosphate buffer pH 6.8); format: physicochemical; settings: FIG. 6 dissolution profile, Example IIA versus Example IIIA
Method: The formulation of Example IIIA containing crystalline compound of formula I (Example IIIA) and the formulation of (Example IIA) containing amorphous compound of formula I were evaluated for dissolution by a two-stage (two dissolution media) dissolution method. At Stage I, 300 mL of deionized water at 37°±0.5° C. using paddles at 75 rpm was used. At Stage II, 600 mL of 6% w/v Sodium Lauryl Sulfate in 0.015M Phosphate Buffer, pH 6.8 equilibrated at 37°±0.5° C., was carefully added into the dissolution vessel 25 minutes after the Stage I dissolution was initiated. Sample aliquots were taken at different time intervals and analyzed by UV spectrophotometry.

[3] = Bioavailability / pharmacokinetics in beagle dogs after single oral dose; format: in vivo
Method: Additionally, preparations containing crystalline compound of formula I (Examples IIIB and IIIC) and amorphous compound of formula I (Example IIA) were evaluated for bioavailability in beagle dogs with body weight of approximately 10 kg. Each dog was given a formulation containing 90 mg of compound of formula I. Blood samples were collected from each dog prior to dosing (0 h) and at 0.5, 1, 2, 4, 6, 8, 12, 24, 36 and 48 hours after dosing. EDTA was used as an anticoagulant. Each plasma sample was separated after cold centrifugation and frozen in an amber vial at a minimum of −60° C. before analysis. Compound of formula I was extracted from plasma and the plasma concentration of compound of formula I was determined using a positive ion TurbolonSpray LC-MS/MS assay[HPLC using HP1100 LC system, Hewleft-Packard, Inc. (Agilent Technologies, Wilmington, Del.) and Mass Spectrometer using PE-Sciex API-3+ (Perkin-Elmer Instruments, Wilton, Conn.), Ionization mode: Turbulonspray, 500C, positive ion] The calibration range was 1 to 1,000 ng/mL using a 100-μL plasma sample. […]

physchem = settings: aqueous media at physiological pHs, aqueous buffer
Source text: A crystalline form of the compound of formula I is known. See, e.g., U.S. Pat. No. Re. 36,736. […] (Id. column 22, lines 5-6). […] See, e.g. U.S. Pat. No. 6,048,887 and EP 0 988,863.

SMILES	retention of amorphous form on storage [1]	solubility versus crystalline form [2]	bioavailability as compared to the crystalline form ([3]; amorphous versus crystalline form)	bioavailability ([3]; dog, in vivo, in dogs, previously known crystalline form (background statement)) [%]	solubility (physchem) [µg/mL]
Cn1cc(C2=C(c3cn(C)c4cc([N+](=O)[O-])ccc34)C(=O)NC2=O)c2ccccc21 [amorphous compound of formula I, 3-(1-methyl-3-indolyl)-4-(1-methyl-6-nitro-3-indolyl)-1H-pyrrole-2,5,-dione]	maintained its amorphous properties; also recorded: remained in its amorphous form	much more soluble	approximately 15 fold		
Cn1cc(C2=C(c3cn(C)c4cc([N+](=O)[O-])ccc34)C(=O)NC2=O)c2ccccc21 [crystalline compound of formula I, 3-(1-methyl-3-indolyl)-4-(1-methyl-6-nitro-3-indolyl)-1H-pyrrole-2,5,-dione, reference compound]				< 5	< 10
